Results reported in US20150240295A1, “REACTIVE, LIPOPHILIC NUCLEOSIDE BUILDING BLOCKS FOR THE SYNTHESIS OF HYDROPHOBIC NUCLEIC ACIDS” (IONOVATION GMBH, priority 2012, published 2015).

Columns and labels:
OVCAR-5 = test: Oncological test, cell growth against OVCAR-5; format: cell-based, human; details: FIGS. 10 and 11
From the text: (§1) FIGS. 10 to 17 show the activity of compounds ESP—2.2, ESP—2.5 and ESP—31 according to the invention as well as the comparative examples ESP—2 and ESP—3 (Table 4) in relation to the concentration employed against various different cancer cells. […] The x-axis depicts the molar concentration of the respective compound on a logarithmical scale.

IGR-OV1 = test: Oncological test, cell growth against IGR-OV1; format: cell-based, human; details: FIGS. 12 and 13
From the text: as §1

HCT-15 cells = test: Oncological test, cell growth against HCT-15; format: cell-based, human; details: for cell growth (inhibition / cytotoxic effect): FIGS. 14 and 15
From the text: as §1

786-0 cells = test: Oncological test, cell growth against 786-0; format: cell-based; details: FIGS. 16 and 17
From the text: as §1

various cancer cells = test: Oncological tests, summary of FIGS. 10 to 17; format: cell-based; details: ovarian, colon and kidney cancer cells
From the text: as §1

COc1ccc(C(OC[C@H]2O[C@@H](n3cnc4c(=O)n(C/C=C(\C)CCC=C(C)C)cnc43)C[C@@H]2O)(c2ccccc2)c2ccc(OC)cc2)cc1 [Compound 4a, 9-((2R,4S,5R)-5-((Bis(4-methoxyphenyl)(phenyl)methoxy)-methyl)-4-hydroxytetrahydrofuran-2-yl)-1-((E)-3,7-di-methylocta-2,6-dienyl)-1H-purin-6(9H)-one]
melting point: 74 °C

CCCCCCCCCC1(CCCCCCCCC)OC2[C@@H](CO)O[C@@H](n3ccc(=O)[nH]c3=O)[C@H]2O1 (stereo partly drawn) [ESP—31]
cell growth (inhibition / cytotoxic effect) (OVCAR-5): cytotoxicity | cell growth (inhibition / cytotoxic effect) (IGR-OV1): vast improvement with respect to the cytotoxic activity | cell growth (inhibition / cytotoxic effect) (HCT-15 cells): high cytotoxic activity | cell growth (inhibition / cytotoxic effect) (786-0 cells): cytotoxic effect

CCCCCCCCCCCCCCCC1(CCCCCCCCCCCCCCC)OC2C(CO)OC(n3ccc(=O)[nH]c3=O)C2O1 (stereo not drawn) [Compound 25d, 1-(6-Hydroxymethyl-2,2-dipentadecyl-tetrahydro-furo[3,4-d][1,3]dioxol-4-yl)-1H-pyrimidin-2,4-dione]
melting point: 93 °C

O=c1cnn([C@@H]2O[C@H](CO)[C@@H](O)[C@H]2O)c(=O)[nH]1 [ESP—2, 6-azauridine, reference compound]
cell growth (inhibition / cytotoxic effect) (OVCAR-5): no activity | cell growth (inhibition / cytotoxic effect) (IGR-OV1): slight inhibition | cell growth (inhibition / cytotoxic effect) (HCT-15 cells): slight inhibition of the growth of the cells

O=c1ccn([C@@H]2O[C@H](CO)[C@@H](O)[C@H]2O)c(=O)[nH]1 [ESP—3, uridine, reference compound]
cell growth (inhibition / cytotoxic effect) (OVCAR-5): no activity | cell growth (inhibition / cytotoxic effect) (IGR-OV1): did not even cause a growth inhibition | cell growth (inhibition / cytotoxic effect) (786-0 cells): did not show any activity at all

CCOC(=O)CC[C@]1(C)OC2[C@@H](CO)O[C@@H](n3ncc(=O)n(C/C=C(\C)CCC=C(C)CCC=C(C)C)c3=O)[C@H]2O1 (stereo partly drawn) [ESP—2.5]
cell growth (inhibition / cytotoxic effect) (OVCAR-5): high cytotoxicity | cell growth (inhibition / cytotoxic effect) (IGR-OV1): improved inhibition effect | cell growth (inhibition / cytotoxic effect) (HCT-15 cells): increased activity | death of the cells (HCT-15 cells; high dosage): over 50% | cell growth (inhibition / cytotoxic effect) (786-0 cells): high cytotoxic effect | activity / cytotoxicity against various cancer cells (various cancer cells): particular high cytotoxicity

CCCCCCCCCCCCCCCCCC1(CCCCCCCCCCCCCCCCC)OC2C(CO)OC(n3ccc(=O)[nH]c3=O)C2O1 (stereo not drawn) [Compound 25e, 1-(2,2-Diheptadecyl-6-hydroxymethyl-tetrahydro-furo[3,4-d][1,3]dioxol-4-yl)-1H-pyrimidin-2,4-dione]
melting point: 89.7 °C

CCCCCCCCCCCCCC1(CCCCCCCCCCCCC)O[C@@H]2[C@H](O1)[C@@H](CO)O[C@H]2n1ccc(=O)[nH]c1=O [Compound 25c, 1-((3aR,4R,6R,6aR)-6-(hydroxymethyl)-2,2-ditridecyltetrahydrofuro[3,4-d][1,3]dioxol-4-yl)pyrimidin-2,4(1H,3H)-dione]
melting point: 90.1 °C

COc1ccc(C(OC[C@H]2O[C@@H](n3cnc4c(=O)n(C/C=C(\C)CC/C=C(\C)CCC=C(C)C)cnc43)C[C@@H]2O)(c2ccccc2)c2ccc(OC)cc2)cc1 [Compound 4b, 9-((2R,4S,5R)-5-((Bis(4-methoxyphenyl)(phenyl)methoxy)-methyl)-4-hydroxytetrahydrofuran-2-yl)-1-((2E,6E)-3,7,11-trimethyldodeca-2,6,10-trienyl)-1H-purin-6(9H)-on]
melting point: 68 °C

CCOC(=O)CC[C@@]1(C)OC2C(O1)[C@@H](COC(c1ccccc1)(c1ccccc1)c1ccc(OC)cc1)O[C@H]2n1ncc(=O)[nH]c1=O (stereo partly drawn) [ESP—2.2]
cell growth (inhibition / cytotoxic effect) (OVCAR-5): inhibition of cell growth | cell growth (inhibition / cytotoxic effect) (IGR-OV1): activity of the compound could be increased | cell growth (inhibition / cytotoxic effect) (HCT-15 cells): increased activity
